We go through four molecules from patent US11000033B2, “Ketone or oxime compound, and herbicide” (NISSAN CHEMICAL CORPORATION, priority 2014, dated 2021).

Holding throughout (format): in vivo
One series has as its system Setaria viridis. The series can be described thus: Test Example 5: herbicidal effect by foliage application, plastic box (symbol G). The note with it: 320 g/ha, 3 weeks after application. In short, it runs like this:
(§1)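 Visual herbicidal score, taken three weeks post-application, of seedlings sprayed on the foliage with water-diluted emulsion at a predetermined amount; plants were 14 days old, greenhouse-raised at 25° C. to 30° C.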

Series [1] has as its system Veronica persica. The series can be described thus: Test Example 4: herbicidal effect by soil treatment (symbol R). The note with it: application herbicide amount 320 g/ha. In short, it runs like this:
(§2)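 Seeds were sown in sterilized diluvial soil, covered with about 1.5 cm of soil, and the soil surface was sprayed with a water-diluted emulsion of the compound at a predetermined rate. Plants grew in a greenhouse at 25° C. to 30° C.; effects were scored visually 3 weeks after application.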

In series [2] the test system is Chenopodium album. The series can be described thus: Test Example 5: herbicidal effect by foliage application, plastic box (symbol O). The note with it: 320 g/ha, 3 weeks after application. In short, it runs like this:
as §1

A further series relates to Digitaria ciliaris. The series can be described thus: Test Example 4: herbicidal effect by soil treatment (symbol F). The note with it: application herbicide amount 320 g/ha. In short, it runs like this:
as §2

The subject of a further series is Leptochloa chinensis. In words: Test Example 3: herbicidal effect by foliage application, Wagner pot (symbol D). The following applies: application herbicide amount 320 g/ha. In short, it runs like this:
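Herbicidal activity was rated three weeks after a foliar spray of diluted emulsion concentrate, applied at a predetermined dose to plants grown for 14 days from seed in waterlogged alluvial soil within a 25–30 °C greenhouse.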

The test system of series [3] is Echinochloa oryzacola Vasing. In words: Test Example 2: herbicidal activity, application during weed generation in submerged conditions (symbol A). The note with it: Table 23; application herbicide amount 320 g/ha; grade 0-5 by criteria of Test Example 1. In short, it runs like this:
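Visual herbicidal ratings, taken three weeks after dosing, reflect post-emergence water-surface application to seedlings at one to two leaves. Conditions: co-sown weeds in alluvial soil flooded to 4 cm, greenhouse held at 25° C. to 30° C.; compound given as water-diluted emulsion at a fixed herbicide amount.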

The test system of series [4] is Chenopodium album. The series can be described thus: Test Example 4: herbicidal effect by soil treatment (symbol O). The following applies: application herbicide amount 320 g/ha. In short, it runs like this:
as §2

The test system of the next series is corn. The series can be described thus: Test Example 5: effect on crop by foliage application, plastic box (symbol c). The note with it: 320 g/ha, 3 weeks after application. In outline:
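Soil: sterilized diluvial. Container: plastic box, 21 × 13 cm, 7 cm deep. Sowing: spot-like, ~1.5 cm cover. Growth: greenhouse, 25° C. to 30° C.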

Series [5] relates to Avena fatua. The series can be described thus: Test Example 4: herbicidal effect by soil treatment (symbol I). The following applies: application herbicide amount 320 g/ha. In short, it runs like this: as §2
Series [6] concerns Veronica persica. In words: Test Example 5: herbicidal effect by foliage application, plastic box (symbol R). The following applies: 320 g/ha, 3 weeks after application. In short, it runs like this:
as §1

Series [7] concerns Echinochloa crus-galli var. crus-galli. In words: Test Example 4: herbicidal effect by soil treatment (symbol H). The note with it: application herbicide amount 320 g/ha. In outline: as §2
For the next series, the system named is transplanted rice plant. In words: Test Example 1: effect on crop, application before weed generation in submerged conditions (symbol a). The following applies: application herbicide amount 320 g/ha. In outline: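 Alluvial soil pots flooded to 4 cm water, sown with Echinochloa oryzacola, Scirpus juncoides and Monochoria vaginalis, then transplanted with 2.5 leaf stage rice seedlings; pre-emergence application. Greenhouse 25° C. to 30° C.; scored 0–5 by herbicidal ratio 3 weeks after application.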

A further series has as its system Lolium multiflorum Lam. The series can be described thus: Test Example 4: herbicidal effect by soil treatment (symbol K). The note with it: application herbicide amount 320 g/ha. In outline: as §2
The test system of series [8] is Avena fatua. In words: Test Example 5: herbicidal effect by foliage application, plastic box (symbol I). The note with it: 320 g/ha, 3 weeks after application. In short, it runs like this:
as §1

Turning to `CON=C(C)CC1CC(OC(=O)C(C)CSC)=C(c2c(C)cc(-c3ccc(Cl)cc3)cc2C)C1=O` (centres unmarked) [6-086], the “G: Setaria viridis, herbicidal effect (criteria of Test Example 1)” value (“G: Setaria viridis, herbicidal effect” below) with Setaria viridis is 5 (Herbicidal ratio of 90% or more (almost completely withered)). Also, in the series with Veronica persica [1], the “Herbicidal effect grade, R: Veronica persica” value (“Herbicidal effect grade, R” for short) is 4 (Herbicidal ratio of 70% or higher and lower than 90%). Moreover, the “O: Chenopodium album, herbicidal effect (criteria of Test Example 1)” value with Chenopodium album [2] is 5 (Herbicidal ratio of 90% or more (almost completely withered)). Also, in the series with Digitaria ciliaris, the “Herbicidal effect grade, F: Digitaria ciliaris” value (shortened to “Herbicidal effect grade, F”) is listed as 5 (Herbicidal ratio of 90% or more (almost completely withered)). Further, the “herbicidal effect on D (Leptochloa chinensis), grade 0-5” value (“herbicidal effect on D” below) with Leptochloa chinensis is 5 (Herbicidal ratio of 90% or more (almost completely withered)). Further, in series [3], the “Herbicidal effect grade, A: Echinochloa oryzacola Vasing.” value was 4 (Herbicidal ratio of 70% or higher and lower than 90%). The “Herbicidal effect grade, O: Chenopodium album” value (shortened to “Herbicidal effect grade, O”) with Chenopodium album [4] was 3 (Herbicidal ratio of 40% or higher and lower than 70%). Also, the “c: corn, effect on crop (criteria of Test Example 1)” value (from here on “c: corn, effect on crop”) in the series on corn was 3 (Herbicidal ratio of 40% or higher and lower than 70%). Moreover, the “Herbicidal effect grade, I: Avena fatua” value with Avena fatua [5] was 4 (Herbicidal ratio of 70% or higher and lower than 90%). Further, in the series with Veronica persica [6], the “R: Veronica persica, herbicidal effect (criteria of Test Example 1)” value is 5 (Herbicidal ratio of 90% or more (almost completely withered)). Moreover, the “Herbicidal effect grade, H: Echinochloa crus-galli var. crus-galli” value (“Herbicidal effect grade, H” below) in [7] is 5 (Herbicidal ratio of 90% or more (almost completely withered)). In addition, in the series on transplanted rice plant, the “Effect grade on crop, a: transplanted rice plant” value (from here on “Effect grade on crop”) is 5 (Herbicidal ratio of 90% or more (almost completely withered)). The “Herbicidal effect grade, K: Lolium multiflorum Lam.” value (“Herbicidal effect grade, K” below) in the series on Lolium multiflorum Lam. is reported as 5 (Herbicidal ratio of 90% or more (almost completely withered)). In addition, in the series on Avena fatua [8], the “I: Avena fatua, herbicidal effect (criteria of Test Example 1)” value is reported as 5 (Herbicidal ratio of 90% or more (almost completely withered)).

With `CON=C(C)CC1CC(O)=C(c2c(C)cc(-c3ccc(Cl)cc3)cc2OC)C1=O` (centres unmarked) [6-077, 2-(4′-chloro-3-methoxy-5-methyl-[1,1′-biphenyl]-4-yl)-3-hydroxy-5-{2-(methoxyimino)propyl}cyclopent-2-enone], the “G: Setaria viridis, herbicidal effect” value in the series on Setaria viridis is listed as 5 (Herbicidal ratio of 90% or more (almost completely withered)). Also, in the series with Veronica persica [1], the “R: Veronica persica, herbicidal effect grade” value is 4 (Herbicidal ratio of 70% or higher and lower than 90%). The “O: Chenopodium album, herbicidal effect (criteria of Test Example 1)” value in the series on Chenopodium album [2] is 4 (Herbicidal ratio of 70% or higher and lower than 90%). Besides, the “F: Digitaria ciliaris, herbicidal effect grade” value in the series with Digitaria ciliaris is 5 (Herbicidal ratio of 90% or more (almost completely withered)). Moreover, the “herbicidal effect on D” value in the series on Leptochloa chinensis is listed as 5 (Herbicidal ratio of 90% or more (almost completely withered)). Besides, in series [3], the “Herbicidal effect grade, A: Echinochloa oryzacola Vasing.” value is given as 5 (Herbicidal ratio of 90% or more (almost completely withered)). The “O: Chenopodium album, herbicidal effect grade” value with Chenopodium album [4] is 4 (Herbicidal ratio of 70% or higher and lower than 90%). The “c: corn, effect on crop” value in the series on corn is on record as 5 (Herbicidal ratio of 90% or more (almost completely withered)). Moreover, the “I: Avena fatua, herbicidal effect grade” value with Avena fatua [5] is 4 (Herbicidal ratio of 70% or higher and lower than 90%). The “R: Veronica persica, herbicidal effect (criteria of Test Example 1)” value in the series on Veronica persica [6] is 4 (Herbicidal ratio of 70% or higher and lower than 90%). In series [7], the “H: Echinochloa crus-galli var. crus-galli, herbicidal effect grade” value is on record as 5 (Herbicidal ratio of 90% or more (almost completely withered)). For the same molecule, the “Effect grade on crop” value in the series with transplanted rice plant is on record as 5 (Herbicidal ratio of 90% or more (almost completely withered)). For the same molecule, the “K: Lolium multiflorum Lam., herbicidal effect grade” value with Lolium multiflorum Lam. is reported as 5 (Herbicidal ratio of 90% or more (almost completely withered)). For the same molecule, in the series on Avena fatua [8], the “I: Avena fatua, herbicidal effect (criteria of Test Example 1)” value is 5 (Herbicidal ratio of 90% or more (almost completely withered)).

With `CON=C(C)CC1CC(OC(=O)N(C)C)=C(c2c(C)cc(C)cc2OC)C1=O` (centres unmarked) [6-109], the “G: Setaria viridis, herbicidal effect” value with Setaria viridis was 5 (Herbicidal ratio of 90% or more (almost completely withered)). Further, the “Herbicidal effect grade, R” value with Veronica persica [1] is on record as 0 (Herbicidal ratio of 5% or lower (almost no effect)). For the same molecule, the “O: Chenopodium album, herbicidal effect (criteria of Test Example 1)” value in the series on Chenopodium album [2] is listed as 0 (Herbicidal ratio of 5% or lower (almost no effect)). In the series on Digitaria ciliaris, the “Herbicidal effect grade, F” value was 5 (Herbicidal ratio of 90% or more (almost completely withered)). Besides, the “herbicidal effect on D” value in the series on Leptochloa chinensis was 4 (Herbicidal ratio of 70% or higher and lower than 90%). Further, the “Herbicidal effect grade, A: Echinochloa oryzacola Vasing.” value in [3] is recorded as 5 (Herbicidal ratio of 90% or more (almost completely withered)). Moreover, the “Herbicidal effect grade, O” value in the series with Chenopodium album [4] is 0 (Herbicidal ratio of 5% or lower (almost no effect)). In addition, the “c: corn, effect on crop” value in the series on corn was 5 (Herbicidal ratio of 90% or more (almost completely withered)). In addition, the “Herbicidal effect grade, I: Avena fatua” value in the series with Avena fatua [5] is listed as 0 (Herbicidal ratio of 5% or lower (almost no effect)). For the same molecule, in the series on Veronica persica [6], the “R: Veronica persica, herbicidal effect (criteria of Test Example 1)” value was 1 (Herbicidal ratio of 5% or higher and lower than 20%). In addition, in [7], the “Herbicidal effect grade, H” value is 5 (Herbicidal ratio of 90% or more (almost completely withered)). Besides, the “Effect grade on crop” value in the series on transplanted rice plant is recorded as 5 (Herbicidal ratio of 90% or more (almost completely withered)). Also, the “Herbicidal effect grade, K” value with Lolium multiflorum Lam. was 5 (Herbicidal ratio of 90% or more (almost completely withered)). Moreover, the “I: Avena fatua, herbicidal effect (criteria of Test Example 1)” value with Avena fatua [8] was 5 (Herbicidal ratio of 90% or more (almost completely withered)).

In the case of `CON=C(C)CC1CC(OC(=O)COc2ccccc2)=C(c2c(C)cc(-c3ccccc3)cc2OC)C1=O` (centres unmarked) [6-100], the “G: Setaria viridis, herbicidal effect” value in the series on Setaria viridis is given as 5 (Herbicidal ratio of 90% or more (almost completely withered)). In addition, the “Herbicidal effect grade, R” value with Veronica persica [1] was 5 (Herbicidal ratio of 90% or more (almost completely withered)). The “O: Chenopodium album, herbicidal effect (criteria of Test Example 1)” value with Chenopodium album [2] was 4 (Herbicidal ratio of 70% or higher and lower than 90%). The “Herbicidal effect grade, F” value in the series with Digitaria ciliaris was 5 (Herbicidal ratio of 90% or more (almost completely withered)). Moreover, the “herbicidal effect on D” value in the series with Leptochloa chinensis is reported as 5 (Herbicidal ratio of 90% or more (almost completely withered)). The “Herbicidal effect grade, A: Echinochloa oryzacola Vasing.” value in series [3] is 5 (Herbicidal ratio of 90% or more (almost completely withered)). For the same molecule, in the series with Chenopodium album [4], the “Herbicidal effect grade, O” value is recorded as 5 (Herbicidal ratio of 90% or more (almost completely withered)). Besides, the “c: corn, effect on crop” value with corn is reported as 5 (Herbicidal ratio of 90% or more (almost completely withered)). Besides, the “Herbicidal effect grade, I: Avena fatua” value with Avena fatua [5] is 5 (Herbicidal ratio of 90% or more (almost completely withered)). Also, the “R: Veronica persica, herbicidal effect (criteria of Test Example 1)” value in the series on Veronica persica [6] is 3 (Herbicidal ratio of 40% or higher and lower than 70%). The “Herbicidal effect grade, H” value in [7] is recorded as 5 (Herbicidal ratio of 90% or more (almost completely withered)). Besides, in the series on transplanted rice plant, the “Effect grade on crop” value is 5 (Herbicidal ratio of 90% or more (almost completely withered)). For the same molecule, in the series with Lolium multiflorum Lam., the “Herbicidal effect grade, K” value is 5 (Herbicidal ratio of 90% or more (almost completely withered)). The “I: Avena fatua, herbicidal effect (criteria of Test Example 1)” value in the series on Avena fatua [8] was 5 (Herbicidal ratio of 90% or more (almost completely withered)).
